From ChEMBL document CHEMBL1201862, “PubChem BioAssay data set” (2004)
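Growth conditions: 96-well plates. Treatment: test compound, 48 hours, 5 concentrations. Analysis: linear interpolation between bracketing concentrations; unreached endpoints set to highest concentration. GI50 marks 50% less growth.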 The source made the active and inactive calls. Cut-off read from the data, not from the text of the source: active = GI50 up to about 1.1 µM and inactive = higher.

Assays:
Assay in all cases: DTP human tumour cell line panel, 48 h
SK-OV-3 = tested on: SK-OV-3
786-0 = tested on: 786-0
K562 = tested on: K562
UACC-257 = tested on: UACC-257
OVCAR-5 = tested on: OVCAR-5
HCC 2998 = tested on: HCC 2998
KM-20L2 = tested on: KM-20L2
NCI-H23 = tested on: NCI-H23
HCT-15 = tested on: HCT-15
DMS-273 = tested on: DMS-273
HOP-92 = tested on: HOP-92
SN12C = tested on: SN12C
RXF 393 = tested on: RXF 393
DMS-114 = tested on: DMS-114
SNB-19 = tested on: SNB-19
HCT-116 = tested on: HCT-116
A498 = tested on: A498
LOX IMVI = tested on: LOX IMVI

Measured: GI50

CSC(=N)N1N=C2c3ccccc3CC[C@@H]2[C@@H]1c1ccccc1
inactive: SK-OV-3 18.1 µM | 786-0 12.9 µM | K562 6.03 µM | UACC-257 18.5 µM | OVCAR-5 17.7 µM | HCC 2998 15 µM | KM-20L2 12 µM | NCI-H23 15.2 µM | DMS-273 15 µM | HOP-92 5.16 µM | SN12C 16.4 µM | RXF 393 13.9 µM | DMS-114 13.3 µM | SNB-19 16.4 µM | HCT-116 4.8 µM | A498 16.7 µM | LOX IMVI 14.5 µM
15.7 µM: HCT-15

CCCCCC(=O)N[C@H]1CCc2cc(O)c(O)c(O)c2-c2ccc(SC)c(=O)cc21
inactive: SK-OV-3 23.3 µM | 786-0 44.5 µM | K562 6.47 µM | UACC-257 37.5 µM | OVCAR-5 > 100 µM | HCC 2998 32.9 µM | KM-20L2 27.6 µM | NCI-H23 21.6 µM | DMS-273 32.5 µM | HOP-92 25.7 µM | SN12C 20.3 µM | RXF 393 38.9 µM | DMS-114 15.5 µM | SNB-19 43.3 µM | HCT-116 18.8 µM | A498 29 µM | LOX IMVI 23.1 µM
22.5 µM: HCT-15

Cc1ccc(NC(=O)C2C3CCC(O3)C2C(=O)O)cc1 (stereo unspecified)
inactive: SK-OV-3 > 83.9 µM | 786-0 > 40.6 µM | K562 > 48.2 µM | UACC-257 > 100 µM | OVCAR-5 > 100 µM | HCC 2998 99.1 µM | KM-20L2 > 26.6 µM | NCI-H23 > 100 µM | DMS-273 > 57.8 µM | HOP-92 36.1 µM | SN12C > 48.8 µM | RXF 393 15.8 µM | DMS-114 33.3 µM | SNB-19 > 100 µM | HCT-116 > 39 µM | A498 > 45.1 µM | LOX IMVI > 38.7 µM
> 44.9 µM: HCT-15

C=CCCCC(C#N)(c1ccccc1)N1CCCC1 (stereo unspecified)
> 100 µM: HCT-15
inactive: SK-OV-3 > 100 µM | 786-0 > 100 µM | K562 > 100 µM | UACC-257 > 100 µM | OVCAR-5 > 100 µM | HCC 2998 > 100 µM | KM-20L2 > 100 µM | NCI-H23 > 100 µM | DMS-273 > 100 µM | HOP-92 > 100 µM | SN12C > 100 µM | RXF 393 > 100 µM | DMS-114 > 100 µM | SNB-19 > 100 µM | HCT-116 > 100 µM | A498 > 100 µM | LOX IMVI > 100 µM

Cc1cc(O)nc(CNC(=O)c2cccc(C(=O)NCc3cc(O)nc(C)n3)c2)n1
> 100 µM: HCT-15
inactive: SK-OV-3 > 100 µM | 786-0 > 100 µM | K562 > 100 µM | UACC-257 > 100 µM | OVCAR-5 > 100 µM | HCC 2998 > 100 µM | KM-20L2 > 100 µM | NCI-H23 > 100 µM | DMS-273 > 100 µM | HOP-92 > 100 µM | SN12C > 100 µM | RXF 393 > 100 µM | DMS-114 > 100 µM | SNB-19 > 100 µM | HCT-116 > 100 µM | A498 > 100 µM | LOX IMVI > 100 µM

Cc1cccc(C(C)C)c1NC(=O)CCl
90.4 µM: HCT-15
inactive: SK-OV-3 67.8 µM | 786-0 53.8 µM | K562 56.2 µM | UACC-257 > 100 µM | OVCAR-5 > 100 µM | HCC 2998 29.6 µM | KM-20L2 45.4 µM | NCI-H23 22.9 µM | DMS-273 69.2 µM | HOP-92 28.6 µM | SN12C 56.2 µM | RXF 393 25.2 µM | DMS-114 20.8 µM | SNB-19 36.5 µM | HCT-116 50.2 µM | A498 > 100 µM | LOX IMVI 37.1 µM

Cn1c(=O)c2c3ccccc3c(C(=O)c3ccccc3)n2c2ccccc21
3.4 µM: HCT-15
inactive: 786-0 10.3 µM | K562 4.08 µM | UACC-257 > 100 µM | OVCAR-5 17.3 µM | KM-20L2 3.8 µM | NCI-H23 23.3 µM | DMS-273 3.27 µM | HOP-92 3.84 µM | SN12C 9.33 µM | RXF 393 14.7 µM | DMS-114 3.67 µM | SNB-19 > 43.3 µM | HCT-116 4.12 µM | A498 7.31 µM | LOX IMVI 9.64 µM

O=C(Nc1cccc(O)c1)C(=O)C(C(=O)c1ccc(Cl)c(Cl)c1)C1OC(=O)c2ccccc21 (stereo unspecified)
inactive: SK-OV-3 12.8 µM | 786-0 13.6 µM | K562 15 µM | UACC-257 20.6 µM | OVCAR-5 22 µM | HCC 2998 15.5 µM | KM-20L2 18.8 µM | NCI-H23 16.6 µM | DMS-273 10.1 µM | HOP-92 22.5 µM | SN12C 18.6 µM | RXF 393 20.9 µM | DMS-114 12.1 µM | SNB-19 13.3 µM | HCT-116 25.7 µM | A498 19.5 µM | LOX IMVI 17.3 µM
15.5 µM: HCT-15

C=C1CC(CCCl)(c2ccccc2)OC1=O (stereo unspecified)
inactive: SK-OV-3 > 100 µM | 786-0 17.4 µM | K562 33.3 µM | UACC-257 44.2 µM | OVCAR-5 > 100 µM | HCC 2998 35.7 µM | KM-20L2 61.8 µM | NCI-H23 > 100 µM | DMS-273 34.7 µM | HOP-92 15.7 µM | SN12C 31.5 µM | RXF 393 13.3 µM | DMS-114 37.9 µM | SNB-19 > 78.7 µM | HCT-116 22.9 µM | A498 > 100 µM | LOX IMVI 30.5 µM
19.7 µM: HCT-15

COC(=O)C(=O)C(C(=O)C(=O)Nc1ccc([N+](=O)[O-])cc1)c1nc2ccccc2nc1O (stereo unspecified)
15 µM: HCT-15
inactive: SK-OV-3 > 100 µM | 786-0 > 100 µM | K562 39.1 µM | UACC-257 55.7 µM | KM-20L2 22.1 µM | NCI-H23 > 100 µM | DMS-273 47.1 µM | HOP-92 > 100 µM | SN12C > 100 µM | RXF 393 > 100 µM | DMS-114 > 100 µM | SNB-19 > 100 µM | HCT-116 > 100 µM | A498 > 100 µM | LOX IMVI > 100 µM

NNC(=O)N/N=C1\CNC(=O)C(=O)C1c1nc2ccccc2s1 (stereo unspecified)
inactive: SK-OV-3 > 100 µM | 786-0 > 100 µM | K562 > 100 µM | UACC-257 > 100 µM | OVCAR-5 > 100 µM | HCC 2998 > 100 µM | KM-20L2 > 100 µM | NCI-H23 > 100 µM | DMS-273 > 100 µM | HOP-92 > 100 µM | SN12C > 100 µM | RXF 393 > 100 µM | DMS-114 > 100 µM | SNB-19 > 100 µM | HCT-116 > 100 µM | A498 > 100 µM | LOX IMVI > 100 µM
> 100 µM: HCT-15

OC1CN(OC/C=C/c2ccccc2)CC(O)C1O (stereo unspecified)
> 100 µM: HCT-15
inactive: SK-OV-3 > 100 µM | 786-0 21.1 µM | K562 > 100 µM | UACC-257 > 100 µM | OVCAR-5 > 100 µM | HCC 2998 > 100 µM | KM-20L2 > 100 µM | NCI-H23 > 100 µM | DMS-273 > 100 µM | HOP-92 > 100 µM | SN12C > 100 µM | RXF 393 > 100 µM | DMS-114 > 100 µM | SNB-19 > 100 µM | HCT-116 > 100 µM | A498 > 100 µM | LOX IMVI 46.1 µM

COc1c(OC)c(N)c2cc(C)c(=O)c(C)cc2c1N
99.8 µM: HCT-15
inactive: SK-OV-3 > 100 µM | 786-0 64.7 µM | K562 > 100 µM | UACC-257 > 100 µM | OVCAR-5 > 100 µM | HCC 2998 > 100 µM | KM-20L2 > 100 µM | NCI-H23 > 100 µM | DMS-273 > 100 µM | HOP-92 > 100 µM | SN12C > 100 µM | RXF 393 > 100 µM | DMS-114 50.9 µM | SNB-19 > 100 µM | HCT-116 97.1 µM | A498 > 100 µM | LOX IMVI 55.2 µM

O=C(Nc1cccc(Cl)c1)c1cc2cc(/N=N/c3ccc(Br)cc3)ccc2oc1=O
inactive: SK-OV-3 51.2 µM | 786-0 25.5 µM | K562 6.19 µM | UACC-257 33.3 µM | OVCAR-5 31 µM | HCC 2998 25.8 µM | KM-20L2 45.1 µM | NCI-H23 22.6 µM | DMS-273 21.3 µM | HOP-92 37.8 µM | SN12C 32.1 µM | RXF 393 16.1 µM | DMS-114 18.4 µM | SNB-19 25.1 µM | HCT-116 37.2 µM | A498 > 100 µM | LOX IMVI 14.4 µM
10.2 µM: HCT-15

COc1nc(OC)nc(Sc2ccc(Sc3ccc(Sc4nc(OC)nc(OC)n4)cc3)cc2)n1
> 100 µM: HCT-15
inactive: SK-OV-3 > 100 µM | 786-0 > 100 µM | K562 > 100 µM | UACC-257 > 100 µM | OVCAR-5 > 100 µM | HCC 2998 > 100 µM | KM-20L2 > 100 µM | NCI-H23 > 100 µM | DMS-273 > 100 µM | HOP-92 > 100 µM | SN12C > 100 µM | RXF 393 > 100 µM | DMS-114 24.1 µM | SNB-19 > 100 µM | HCT-116 > 100 µM | A498 > 100 µM | LOX IMVI > 100 µM
